From BigSolDB 2.1

CC1=C[C@H](O)CC(C)(C)[C@H]1/C=C/C(C)=C/C=C/C(C)=C/C=C/C=C(C)/C=C/C=C(C)/C=C/C1=C(C)C[C@@H](O)CC1(C)C
solubility (mole fraction)
Conditions | 278.15 K | 283.15 K | 288.15 K | 293.15 K | 298.15 K | 303.15 K | 308.15 K | 313.15 K | 318.15 K | 323.15 K
in ethanol | 1.75e-05 | 1.96e-05 | 2.27e-05 | 2.63e-05 | 3.16e-05 | 3.75e-05 | 4.48e-05 | 5.32e-05 | 6.42e-05 | 7.72e-05
in ethylene glycol | 2.68e-07 | 3.03e-07 | 3.48e-07 | 3.89e-07 | 4.43e-07 | 5.17e-07 | 6.12e-07 | 7.13e-07 | 8.45e-07 | 9.61e-07
in isopropanol | 9.74e-07 | 1.03e-06 | 1.1e-06 | 1.18e-06 | 1.27e-06 | 1.39e-06 | 1.51e-06 | 1.67e-06 | 1.86e-06 | 2.13e-06
in methanol | 2.31e-05 | 2.84e-05 | 3.77e-05 | 4.91e-05 | 6.72e-05 | 8.41e-05 | 0.000107 | 0.000134 | 0.000166 | 0.000207
